Data reported in patent publication US5747447A, “Stable polypeptide composition” (COR Therapeutics, priority 1995, dated 1998).
*1 amine or outer side, *2 acyl side, *3 side chain or, on linkers, in order; H or OH if unused. Where a SMILES comes first, the peptide text is derived from it. Bridges are numbered along the chain shown (N, C = ends). Where no end group is shown, it is not given here. [ ]: non-standard residue; d: D form. The star is where a group is joined. Phe(4-NO2) = N[C@@H](Cc1ccc([N+](=O)[O-])cc1)C(=O)O; X1 = N=C(NCCCC[C@H](N[*:1])C(=O)[*:2])c1ccccc1; X2 = CC(=N)NCCCC[C@H](N[*:1])C(=O)[*:2]; hArg = N=C(N)NCCCC[C@H](N)C(=O)O; dPen = CC(C)(S)[C@@H](N)C(=O)O; Pen = CC(C)(S)[C@H](N)C(=O)O; NMeA = CN[C@@H](C)C(=O)O; Orn = NCCC[C@H](N)C(=O)O; Thz = O=C(O)[C@@H]1CSCN1; Aib = CC(C)(N)C(=O)O; βAla = NCCC(=O)O; Mpa = O=C(O)CCS; Sar = CNCC(=O)O; For = O=C*

Target: ADP-induced human platelet aggregation (Homo sapiens, UniProt P05106+P08514)
Assay: standard aggregation inhibition assay (ADP-induced human platelet aggregation)
Assay type: cell-based
Settings: for IC50: ADP-induced human platelet aggregation, read-out: Appr, IC50; for IC20: PAI activity, Example 15, read-out: Appr.IC20
Excerpt: 2. Standard assays directly applied to platelet aggregation, such as those described by Gann, Z.-R., et al., J Biol Chem (1988) 263:19827-19832; Huang, T. F., et al., J Biol Chem (1987) 262:16157-16163; Biochemistry (1989) 28:661-666, cited above and incorporated herein by reference;

Compound | IC50 [µM] | IC20 [µM]
CC1(C)SSCCC(=O)N[C@@H](CCCCNC(=N)N)C(=O)NCC(=O)N[C@@H](CC(=O)O)C(=O)N[C@@H](Cc2c[nH]c3ccccc23)C(=O)N2CCC[C@H]2C(=O)N[C@@H]1C(N)=O [Analog #63, Mpr-(Har)-G-D-W-P-Pen-NH2] ([Mpa][hArg]GDWP[Pen]-NH2; disulfide 1-7) | 0.1 | 
N=C(NCCCC[C@@H]1NC(=O)CCSSC[C@@H](C(N)=O)NC(=O)[C@@H]2CCCN2C(=O)[C@H](Cc2c[nH]c3ccccc23)NC(=O)[C@H](CC(=O)O)NC(=O)CNC1=O)c1ccccc1 [Analog #70, Mpr-(Phenylimidyl-Lys)-G-D-W-P-C-NH2] ([Mpa][X1]GDWPC-NH2; disulfide 1-7) | 0.5 | 
CC(=N)NCCCC[C@@H]1NC(=O)CCSSC[C@@H](C(N)=O)NC(=O)[C@@H]2CCCN2C(=O)[C@H](Cc2c[nH]c3ccccc23)NC(=O)[C@H](CC(=O)O)NC(=O)CNC1=O [Analog #64, Mpr-(Acetimidyl-Lys)-G-D-W-P-C-NH2] ([Mpa][X2]GDWPC-NH2; disulfide 1-7) | 0.25 | 
CC(C)[C@@H]1NC(=O)CCSSC[C@@H](C(N)=O)NC(=O)[C@@H]2CCCN2C(=O)[C@H](Cc2c[nH]c3ccccc23)NC(=O)[C@H](CC(=O)O)NC(=O)CNC(=O)[C@H](CCCCNC(=N)N)NC1=O [PAI 91, Mpr-V-Har-G-D-W-P-C-NH2] ([Mpa]V[hArg]GDWPC-NH2; disulfide 1-8) |  | 0.35
CN1CC(=O)N[C@@H](CC(=O)O)C(=O)N[C@@H](Cc2c[nH]c3ccccc23)C(=O)N2CCC[C@H]2C(=O)N[C@H](C(N)=O)C(C)(C)SSCCC(=O)N[C@@H](CCCCNC(=N)N)C1=O [Analog #71, Mpr-Har-Sar-D-W-P-Pen-NH2] ([Mpa][hArg][Sar]DWP[Pen]-NH2; disulfide 1-7) | 2.5 | 
Mpr-Har-G-D-W-P-(Aib)-NH2 ([Mpa][hArg]GDWP[Aib]-NH2; SMILES CC(C)(NC(=O)[C@@H]1CCCN1C(=O)[C@H](Cc1c[nH]c2ccccc12)NC(=O)[C@H](CC(=O)O)NC(=O)CNC(=O)[C@H](CCCCNC(=N)N)NC(=O)CCS)C(N)=O) [PAI 99] |  | 0.46
N=C(N)NCCCC[C@@H]1NC(=O)CCSSC[C@@H](C(N)=O)NC(=O)CNC(=O)[C@@H]2CCCN2C(=O)[C@H](Cc2c[nH]c3ccccc23)NC(=O)[C@H](CC(=O)O)NC(=O)CNC1=O [PAI 95, Mpr-Har-G-D-W-P-G-C-NH2] ([Mpa][hArg]GDWPGC-NH2; disulfide 1-8) |  | 8.66
CC1(C)SSCCC(=O)N[C@H](CCCCN)C(=O)NCC(=O)N[C@@H](CC(=O)O)C(=O)N[C@@H](Cc2c[nH]c3ccccc23)C(=O)N2CCC[C@H]2C(=O)N[C@@H]1C(N)=O [Analog #62, Mpr-K.dagger.-G-D-W-P-Pen-NH2] ([Mpa][dK]GDWP[Pen]-NH2; disulfide 1-7) | 2.5 | 
CC1(C)SSCCC(=O)N[C@@H](CCCCN)C(=O)NCC(=O)N[C@@H](CC(=O)O)C(=O)N[C@H](Cc2c[nH]c3ccccc23)C(=O)N2CCC[C@H]2C(=O)N[C@@H]1C(N)=O [Analog #50, Mpr-K-G-D-W.dagger.-P-Pen-NH2] ([Mpa]KGD[dW]P[Pen]-NH2; disulfide 1-7) | > 200 | 
CN1CC(=O)N[C@@H](CCCCNC(=N)N)C(=O)NCC(=O)N[C@@H](CC(=O)O)C(=O)N[C@@H](Cc2c[nH]c3ccccc23)C(=O)N2CCC[C@H]2C(=O)N[C@H](C(N)=O)CSSCCC1=O [PAI 90, Mpr-Sar-Har-G-D-W-P-C-NH2] ([Mpa][Sar][hArg]GDWPC-NH2; disulfide 1-8) |  | 0.27
CC1(C)SSCCC(=O)N[C@@H](CCCCN)C(=O)NCC(=O)N[C@@H](CC(=O)O)C(=O)N[C@@H](Cc2c[nH]c3ccccc23)C(=O)N2CCC[C@H]2C(=O)N[C@H]1C(N)=O [Analog #52, Mpr-K-G-D-W-P-Pen.dagger.-NH2] ([Mpa]KGDWP[dPen]-NH2; disulfide 1-7) | 5 | 
CKGDWGC-NH2 (cysteine pairing not given here) [Analog #34] | 100 | 
CKGEWPC-NH2 (cysteine pairing not given here) [Analog #35] | > 300 | 
CKGDFPC-NH2 (cysteine pairing not given here) [Analog #13] | 20 | 
CN1CC(=O)N[C@H](C(N)=O)CSSC[C@H](N)C(=O)N[C@@H](CCCCN)C(=O)NCC(=O)N[C@@H](CC(=O)O)C(=O)N[C@@H](Cc2c[nH]c3ccccc23)C1=O [Analog #39, C-K-G-D-W-(Sar)-C-NH2] (H-CKGDW[Sar]C-NH2; disulfide 1-7) | 5 | 
NCCCC[C@@H]1NC(=O)CCSSC[C@@H](C(N)=O)NC(=O)[C@@H]2CSCN2C(=O)[C@H](Cc2c[nH]c3ccccc23)NC(=O)[C@H](CC(=O)O)NC(=O)CNC1=O [Analog #55, Mpr-K-G-D-W-(Thz)-C-NH2] ([Mpa]KGDW[Thz]C-NH2; disulfide 1-7) | 2 | 
C[C@H]1NC(=O)CCSSC[C@@H](C(N)=O)NC(=O)[C@@H]2CCCN2C(=O)[C@H](Cc2c[nH]c3ccccc23)NC(=O)[C@H](CC(=O)O)NC(=O)CNC(=O)[C@H](CCCCNC(=N)N)NC1=O [PAI 86, Mpr-A.dagger.-Har-G-D-W-P-C-NH2] ([Mpa][dA][hArg]GDWPC-NH2; disulfide 1-8) |  | 1.15

Compound | IC50 [µM] | IC20 [µM]
CC1(C)SSCCC(=O)N[C@@H](CCCCN)C(=O)NCC(=O)N[C@@H](CC(=O)O)C(=O)N[C@@H](Cc2c[nH]c3ccccc23)C(=O)N2CCC[C@@H]2C(=O)N[C@@H]1C(N)=O [Analog #53, Mpr-K-G-D-W-P.dagger.-Pen-NH2] ([Mpa]KGDW[dP][Pen]-NH2; disulfide 1-7) | > 200 | 
CKGDYPC-NH2 (cysteine pairing not given here) [Analog #12] | 12 | 
N=C(N)NCCCC[C@@H]1NC(=O)CCNC(=O)CCSSC[C@@H](C(N)=O)NC(=O)[C@@H]2CCCN2C(=O)[C@H](Cc2c[nH]c3ccccc23)NC(=O)[C@H](CC(=O)O)NC(=O)CNC1=O [PAI 87, Mpr-(β-Ala)-Har-G-D-W-P-C-NH2] ([Mpa][βAla][hArg]GDWPC-NH2; disulfide 1-8) |  | 0.92
C[C@H]1C(=O)N[C@H](C(N)=O)CSSCCC(=O)N[C@@H](CCCCNC(=N)N)C(=O)NCC(=O)N[C@@H](CC(=O)O)C(=O)N[C@@H](Cc2c[nH]c3ccccc23)C(=O)N2CCC[C@H]2C(=O)N1C [PAI 94, Mpr-Har-G-D-W-P-(N-Me-Ala)-C-NH2] ([Mpa][hArg]GDWP[NMeA]C-NH2; disulfide 1-8) |  | 1.46
CKADWPC-NH2 (cysteine pairing not given here) [Analog #37] | 100 | 
N=C(N)NCCCC[C@@H]1NC(=O)CNC(=O)CCSSC[C@@H](C(N)=O)NC(=O)[C@@H]2CCCN2C(=O)[C@H](Cc2c[nH]c3ccccc23)NC(=O)[C@H](CC(=O)O)NC(=O)CNC1=O [PAI 81, Mpr-G-Har-G-D-W-P-C-NH2] ([Mpa]G[hArg]GDWPC-NH2; disulfide 1-8) |  | 7.47
CC1(C)SSCCC(=O)N[C@@H](CCCCNC(=N)c2ccccc2)C(=O)NCC(=O)N[C@@H](CC(=O)O)C(=O)N[C@@H](Cc2c[nH]c3ccccc23)C(=O)N2CCC[C@H]2C(=O)N[C@@H]1C(N)=O [Analog #72, Mpr-(Phenylimidyl-Lys)-G-D-W-P-Pen-NH2] ([Mpa][X1]GDWP[Pen]-NH2; disulfide 1-7) | 0.5 | 
CC(=O)N[C@H]1CSSC(C)(C)[C@@H](C(N)=O)NC(=O)[C@H](CC(=O)O)NC(=O)CNC(=O)[C@H](CCCNC(=N)N)NC1=O [Analog #11, Acetyl-C-R-G-D-Pen-NH2] (Ac-CRGD[Pen]-NH2; disulfide 1-5) | 5 | 
C[C@H]1NC(=O)[C@@H]2CCCN2C(=O)[C@H](Cc2c[nH]c3ccccc23)NC(=O)[C@H](CC(=O)O)NC(=O)CNC(=O)[C@H](CCCCNC(=N)N)NC(=O)CCSSC[C@@H](C(N)=O)NC1=O [PAI 96, Mpr-Har-G-D-W-P-A.dagger.-C-NH2] ([Mpa][hArg]GDWP[dA]C-NH2; disulfide 1-8) |  | 0.23
Acetyl-C-K-G-D-C-NH2 [Analog #8] | 200 | 
NC(=O)[C@@H]1CSSC[C@H](N)C(=O)N[C@@H](CCCCNC=O)C(=O)NCC(=O)N[C@@H](CC(=O)O)C(=O)N[C@@H](Cc2c[nH]c3ccccc23)C(=O)N2CCC[C@H]2C(=O)N1 [Analog #40, C-K(Formyl)-G-D-W-P-C-NH2] (H-CK(For)GDWPC-NH2; disulfide 1-7) | > 200 | 
NCCC[C@@H]1NC(=O)[C@@H](N)CSSC[C@@H](C(N)=O)NC(=O)[C@@H]2CCCN2C(=O)[C@H](Cc2c[nH]c3ccccc23)NC(=O)[C@H](CC(=O)O)NC(=O)CNC1=O [Analog #36, C-Orn-G-D-W-P-C-NH2] (H-C[Orn]GDWPC-NH2; disulfide 1-7) | 150 to 200 | 
CC1(C)SSCCC(=O)N[C@@H](CCCCN)C(=O)NCC(=O)N[C@H](CC(=O)O)C(=O)N[C@@H](Cc2c[nH]c3ccccc23)C(=O)N2CCC[C@H]2C(=O)N[C@@H]1C(N)=O [Analog #54, Mpr-K-G-D.dagger.-W-P-Pen-NH2] ([Mpa]KG[dD]WP[Pen]-NH2; disulfide 1-7) | > 100 | 
CC1(C)SSCCC(=O)N[C@@H](CC(=O)O)C(=O)N[C@@H](CCCCNC(=N)N)C(=O)NCC(=O)N[C@@H](CC(=O)O)C(=O)N[C@@H](Cc2c[nH]c3ccccc23)C(=O)N2CCC[C@H]2C(=O)N[C@@H]1C(N)=O [PAI 102, Mpr-D-(Har)-G-D-W-P-Pen-NH2] ([Mpa]D[hArg]GDWP[Pen]-NH2; disulfide 1-8) |  | 4.04
CKGDWPC-NH2 (cysteine pairing not given here) [Analog #10] | 5 | 
NCCCC[C@@H]1NC(=O)[C@@H](N)CSSC[C@@H](C(N)=O)NC(=O)[C@@H]2CCCN2C(=O)[C@H](Cc2ccc([N+](=O)[O-])cc2)NC(=O)[C@H](CC(=O)O)NC(=O)CNC1=O [Analog #44, C-K-G-D-(4-NO2 -Phe)-P-C-NH2] (H-CKGD[Phe(4-NO2)]PC-NH2; disulfide 1-7) | 75 | 
NCCCC[C@@H]1NC(=O)CCSSC[C@H](C(N)=O)NC(=O)[C@@H]2CCCN2C(=O)[C@H](Cc2c[nH]c3ccccc23)NC(=O)[C@H](CC(=O)O)NC(=O)CNC1=O [Analog #61, Mpr-K-G-D-W-P-C.dagger.-NH2] ([Mpa]KGDWP[dC]-NH2; disulfide 1-7) | 15 | 
